The source of these data is patent publication US20110053770A1, “SUBSTITUTED AMINOTHIAZOLES AND THEIR USE AS FUNGICIDES” (BAYER CROPSCIENCE AG, priority 2009, published 2011).

The nature of the data set: logP by HPLC on reversed-phase columns (C 18), EEC directive 79/831 Annex V.A8. The format is physicochemical. The following applies: for log P (***) / log P (**): LC-MS; for log P (***): neutral range, pH 7.8, 0.001 molar aqueous ammonium bicarbonate and acetonitrile; for log P (*) / log P (**): acidic range; for log P (*): pH 2.3, 0.1% aqueous phosphoric acid and acetonitrile; for log P (**): pH 2.7, 0.1% aqueous formic acid and acetonitrile. On the procedure: Calibration was carried out using unbranched alkan-2-ones (having from 3 to 16 carbon atoms) with known logP values (the logP values were determined by the retention times using linear interpolation between two successive alkanones).

Marks after values point to notes of the source that are not given here.

With `Cc1cccc(-c2cccc(-c3csc(N=C4CCCCN4)n3)c2)c1` [compound 71, 4-(3′-methylbiphenyl-3-yl)-N-[(2E/Z)-piperidin-2-ylidene]-1,3-thiazole-2-amine], the “log P (***)” value was determined as 4.48 and the “log P (*)” value stood at 2.12.
In the same order, the values of `Brc1ccccc1Oc1ccccc1-c1csc(N=C2CCCCN2)n1` [compound 86, 4-[2-(2-bromophenoxy)phenyl]-N-[(2E/Z)-piperidin-2-ylidene]-1,3-thiazole-2-amine] are 4.38 and 2.06.
In the case of `CC(=O)N1CCCCC1=Nc1nc(-c2ccc(Cl)cc2)c(C)s1` [compound 42, 1-[(2E/Z)-2-{[4-(4-chlorophenyl)-5-methyl-1,3-thiazol-2-yl]imino}piperidin-1-yl]ethanone], the “log P (**)” value was determined as 3.92, the “log P (***)” value is given as 3.96 and the “log P (*)” value is on record as 3.92.
In the case of `CC(C)(C)Cc1cccc(-c2csc(N=C3CCCCN3)n2)c1` [compound 47, 4-[3-(2,2-dimethylpropyl)phenyl]-N-[(2E/Z)-piperidin-2-ylidene]-1,3-thiazole-2-amine], the “log P (**)” value is 2.51 and the “log P (***)” value is 4.86.
In the case of `Fc1ccc(F)c(Oc2ccccc2-c2csc(N=C3CCCCN3)n2)c1` [compound 80, 4-[2-(2,5-difluorophenoxy)phenyl]-N-[(2E/Z)-piperidin-2-ylidene]-1,3-thiazole-2-amine], the “log P (***)” value was 3.98 and the “log P (*)” value worked out at 1.94.
In the same order, the values of `Clc1cccc(Cc2csc(N=C3CCCCN3)n2)c1` [compound 70, 4-(3-chlorobenzyl)-N-[(2E/Z)-piperidin-2-ylidene]-1,3-thiazole-2-amine] are 3.36 and 1.58.
In the same order, the values of `Fc1ccc(Oc2ccc(-c3csc(N=C4CCCN4)n3)cc2)c(F)c1` [compound 97, 4-[4-(2,4-difluorophenoxy)phenyl]-N-[(2E/Z)-pyrrolidin-2-ylidene]-1,3-thiazole-2-amine] are 3.59 and 2.03.
Turning to `Fc1cc(F)cc(-c2csc(N=C3CCCCN3)n2)c1` [compound 29, 4-(3,5-difluorophenyl)-N-[(2E/Z)-piperidin-2-ylidene]-1,3-thiazole-2-amine], the “log P (**)” value was 1.57, the “log P (***)” value is on record as 3.22 and the “log P (*)” value was found to be 1.57.
For the compound `CC(=O)N1CCCCC1=Nc1nc(-c2cccc(F)c2F)cs1` [compound 37, 1-[(2E/Z)-2-{[4-(2,3-difluorophenyl)-1,3-thiazol-2-yl]imino}piperidin-1-yl]ethanone], the “log P (**)” value is on record as 3.63**; 3.63***; 3.63*, the “log P (***)” value is 3.63**; 3.63***; 3.63* and the “log P (*)” value is 3.63**; 3.63***; 3.63*.
For `c1ccc(Cc2ccccc2-c2csc(N=C3CCCCN3)n2)cc1` [compound 81, 4-(2-benzylphenyl)-N-[(2E/Z)-piperidin-2-ylidene]-1,3-thiazole-2-amine], the “log P (***)” value was 2.02***.
Take `Fc1ccc(Oc2ccccc2-c2csc(N=C3CCCCN3)n2)cc1` [compound 75, 4-[2-(4-fluorophenoxy)phenyl]-N-[(2E/Z)-piperidin-2-ylidene]-1,3-thiazole-2-amine]: the “log P (*)” value is 1.87*.
Turning to `CC(C)(C)c1cc(Oc2ccccc2-c2csc(N=C3CCCN3)n2)ccc1Cl` [compound 101, 4-[2-(3-tert-butyl-4-chlorophenoxy)phenyl]-N-[(2E/Z)-pyrrolidin-2-ylidene]-1,3-thiazole-2-amine], the “log P (**)” value came to 3.09, the “log P (***)” value stood at 5.53 and the “log P (*)” value is on record as 3.09.
On to `Brc1cccc(-c2csc(N=C3CCCCN3)n2)c1` [compound 106, 4-(3-bromophenyl)-N-[(2E/Z)-piperidin-2-ylidene]-1,3-thiazole-2-amine], for which the “log P (**)” value is 1.53**.
As to `COc1ccc(-c2csc(N=C3CCCCN3)n2)cc1` [compound 56, 4-(4-methoxyphenyl)-N-[(2E/Z)-piperidin-2-ylidene]-1,3-thiazole-2-amine], the “log P (*)” value is 1.18*.
With `Cc1cccc(-c2csc(N=C3CCCCN3)n2)n1` [compound 62, 4-(6-methylpyridin-2-yl)-N-[(2E/Z)-piperidin-2-ylidene]-1,3-thiazole-2-amine], the “log P (***)” value turned out to be 2.13 and the “log P (*)” value was determined as 0.29.
For `Fc1cc(F)c(Oc2ccccc2-c2csc(N=C3CCCCN3)n2)c(F)c1` [compound 82, N-[(2E/Z)-piperidin-2-ylidene]-4-[2-(2,4,6-trifluorophenoxy)phenyl]-1,3-thiazole-2-amine] the same measures were 3.96 and 2.02.
Take `FC(F)(F)c1cccc(-c2csc(N=C3CCCCN3)n2)c1` [compound 45, N-[(2E/Z)-piperidin-2-ylidene]-4-[3-(trifluoromethyl)phenyl]-1,3-thiazole-2-amine]: the “log P (**)” value was determined as 1.97 and the “log P (***)” value came to 3.55.
Consider `c1ccc(-c2ccccc2-c2csc(N=C3CCCCN3)n2)cc1` [compound 64, 4-(biphenyl-2-yl)-N-[(2E/Z)-piperidin-2-ylidene]-1,3-thiazole-2-amine], for which the “log P (**)” value is 1.82**.
On the same count and under the same terms, to `FC(F)(F)Oc1ccc(-c2csc(N=C3CCCCN3)n2)cc1` [compound 50, N-[(2E/Z)-piperidin-2-ylidene]-4-[4-(trifluoromethoxy)phenyl]-1,3-thiazole-2-amine] belongs 1.78**.
As for `Fc1ccc(-c2csc(N=C3CCCCN3)n2)cc1F` [compound 18, 4-(3,4-difluorophenyl)-N-[(2E/Z)-piperidin-2-ylidene]-1,3-thiazole-2-amine], the “log P (**)” value was determined as 1.64, the “log P (***)” value was determined as 3.12 and the “log P (*)” value stood at 1.64.
As to `c1ccc(Oc2ccccc2-c2csc(N=C3CCCCN3)n2)cc1` [compound 10, 4-(2-phenoxyphenyl)-N-[(2E/Z)-piperidin-2-ylidene]-1,3-thiazole-2-amine], the “log P (**)” value was found to be 2.09, the “log P (***)” value amounted to 3.91 and the “log P (*)” value was 2.07.
For the compound `Fc1ccc(Cc2ccccc2-c2csc(N=C3CCCCN3)n2)c(F)c1` [compound 88, 4-[2-(2,4-difluorobenzyl)phenyl]-N-[(2E/Z)-piperidin-2-ylidene]-1,3-thiazole-2-amine], the “log P (***)” value is 4.27 and the “log P (*)” value was determined as 2.04.
As to `CC(C)(C)c1cc(Oc2ccccc2-c2csc(N=C3CCCCN3)n2)ccc1Cl` [compound 12, 4-[2-(3-tert-butyl-4-chlorophenoxy)phenyl]-N-[(2E/Z)-piperidin-2-ylidene]-1,3-thiazole-2-amine], the “log P (**)” value turned out to be 2.92, the “log P (***)” value is given as 5.96 and the “log P (*)” value was found to be 2.92.
As to `CC(=O)N1CCCCC1=Nc1nc(-c2ccccc2Oc2ccc(F)cc2F)cs1` [compound 16, 1-[(2E/Z)-2-({4-[2-(2,4-difluorophenoxy)phenyl]-1,3-thiazol-2-yl}imino)piperidin-1-yl]ethanone], the “log P (**)” value stood at 4.36, the “log P (***)” value amounted to 4.32 and the “log P (*)” value came to 4.36.
